In US9409866B2, “Pyridine-2-amides useful as CB2 agonists” (Hoffmann-La Roche Inc., priority 2012, dated 2016) one finds EC50 data, which are given here for 26 molecules.

The structures appear in SMILES notation. Like-named read-outs stand apart in the source and are kept apart here.

The target of one experiment is human CB1 receptors (Homo sapiens (Human), UniProt P21554). Briefly: functional cAMP assay, CHO cells expressing human CB1. Format: cell-based. The settings on record: functional cAMP assay, CHO cells expressing human CB1. In short, it runs like this: (§1)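 Compound exposure lasted 30 min at 30 °C in IBMX (1 mM)-containing Krebs Ringer bicarbonate buffer, applied to human CB1- or CB2-expressing CHO cells. Lysates were read by time-resolved FRET cAMP detection, converted via cAMP standard curve (10 μM–0.13 nM), and EC50 values calculated.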
Sequence of human CB1 receptors (P21554 whole entry): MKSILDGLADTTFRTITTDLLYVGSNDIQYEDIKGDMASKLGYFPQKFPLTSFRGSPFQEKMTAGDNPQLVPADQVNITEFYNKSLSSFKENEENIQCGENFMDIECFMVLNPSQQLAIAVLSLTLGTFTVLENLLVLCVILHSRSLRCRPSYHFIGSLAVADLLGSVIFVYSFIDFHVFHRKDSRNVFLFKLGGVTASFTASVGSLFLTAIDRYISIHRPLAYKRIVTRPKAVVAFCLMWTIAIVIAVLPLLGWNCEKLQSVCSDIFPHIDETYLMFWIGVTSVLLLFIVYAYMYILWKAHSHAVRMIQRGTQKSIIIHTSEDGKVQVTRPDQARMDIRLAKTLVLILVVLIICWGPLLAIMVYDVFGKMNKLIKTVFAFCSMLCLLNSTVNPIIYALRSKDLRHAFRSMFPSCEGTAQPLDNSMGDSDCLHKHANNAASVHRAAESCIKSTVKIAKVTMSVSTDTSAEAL
On the technique in general: Cyclic AMP is a second messenger, typically raised through Gs and lowered through Gi signalling.

For the next experiment, the target named is human CB2 receptors (Homo sapiens (Human), UniProt P34972). Briefly: functional cAMP assay, CHO cells expressing human CB2. Format: cell-based. In short, it runs like this:
as §1

Sequence of human CB2 receptors (P34972 whole entry): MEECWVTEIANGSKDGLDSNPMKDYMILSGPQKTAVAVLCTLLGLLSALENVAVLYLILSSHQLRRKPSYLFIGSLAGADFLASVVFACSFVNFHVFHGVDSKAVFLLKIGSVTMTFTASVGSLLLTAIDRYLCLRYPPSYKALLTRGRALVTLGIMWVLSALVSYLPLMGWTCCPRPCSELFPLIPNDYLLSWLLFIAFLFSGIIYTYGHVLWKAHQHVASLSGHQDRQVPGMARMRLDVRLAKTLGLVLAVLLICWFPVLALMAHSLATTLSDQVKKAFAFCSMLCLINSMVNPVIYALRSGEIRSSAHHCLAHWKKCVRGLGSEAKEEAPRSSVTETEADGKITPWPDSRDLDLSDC

Consider `C[C@H](Oc1cc(C(=O)NC(C)(C#N)CC2CC2)ncc1C1(F)COC1)C(F)(F)F` (stereo partly drawn) [Example 143, N-(2-cyano-1-cyclopropylpropan-2-yl)-5-(3-fluorooxetan-3-yl)-4-[(2S)-1,1,1-trifluoropropan-2-yl]oxypyridine-2-carboxamide], for which the figures for the EC50 at human CB1 receptors (read-out: Human CB1 EC50) and at human CB2 receptors (read-out: Human CB2 EC50) were more than 10 µM and 0.246 µM, respectively.

Consider `Cc1nc(C(C)(CS(C)(=O)=O)NC(=O)c2cc(O[C@@H](C)C(F)(F)F)c(C3CCC3)cn2)no1` (stereo partly drawn) [Example 118, 5-cyclobutyl-N-[2-(5-methyl-1,2,4-oxadiazol-3-yl)-1-methylsulfonylpropan-2-yl]-4-[(2S)-1,1,1-trifluoropropan-2-yl]oxypyridine-2-carboxamide], for which the EC50 (as a rule, the concentration needed to bring the measured effect to its halfway point) is more than 10 µM at human CB1 receptors (read-out: Human CB1 EC50) and 0.0017 µM at human CB2 receptors (read-out: Human CB2 EC50).

For the molecule `CC(C)C[C@H](NC(=O)c1cc(-c2cccc(Cl)c2)c(Cl)cn1)C(N)=O` [Example 3, 5-Chloro-4-(3-chloro-phenyl)-pyridine-2-carboxylic acid ((S)-1-carbamoyl-3-methyl-butyl)-amide], the figures for the EC50 on human CB1 receptors (read-out: Human CB1 EC50) and on human CB2 receptors (read-out: Human CB2 EC50) were more than 10 µM and 0.466 µM, respectively.

With `NC(=O)CC1(NC(=O)c2cc(OCC(F)(F)F)c(N3CC(F)(F)C3)cn2)COC1` [Example 223, N-[3-(2-amino-2-oxoethyl)oxetan-3-yl]-5-(3,3-difluoroazetidin-1-yl)-4-(2,2,2-trifluoroethoxy)pyridine-2-carboxamide], the EC50 was more than 10 µM on human CB1 receptors (read-out: Human CB1 EC50) and 0.166 µM on human CB2 receptors (read-out: Human CB2 EC50).

As for `CC(C)(C)C(NC(=O)c1cc(OCC(F)(F)F)c(C2CC2)cn1)c1nn[nH]n1` (stereo not shown) [Example 162, 5-cyclopropyl-N-[2,2-dimethyl-1-(1H-tetrazol-5-yl)propyl]-4-(2,2,2-trifluoroethoxy)pyridine-2-carboxamide], the figures for the EC50 at human CB1 receptors (read-out: Human CB1 EC50) and at human CB2 receptors (read-out: Human CB2 EC50) were more than 10 µM and 0.0717 µM, respectively.

On to `Cc1nc(C(C)(NC(=O)c2cc(OCC(F)(F)F)c(C3CC3)cn2)C2CC2)no1` (stereo not shown) [Example 49, 5-Cyclopropyl-4-(2,2,2-trifluoro-ethoxy)-pyridine-2-carboxylic acid [1-cyclopropyl-1-(5-methyl-[1,2,4]oxadiazol-3-yl)-ethyl]-amide], for which the values for the EC50 at human CB1 receptors (read-out: Human CB1 EC50) and at human CB2 receptors (read-out: Human CB2 EC50) were more than 10 µM and 0.0017 µM, respectively.

As for `Cc1nc(C(C)(CS(C)(=O)=O)NC(=O)c2cc(O[C@@H](C)C(F)(F)F)c(C3CC3)cn2)no1` (stereo partly drawn) [Example 81, 5-Cyclopropyl-4-((S)-2,2,2-trifluoro-1-methyl-ethoxy)-pyridine-2-carboxylic acid [2-methanesulfonyl-1-methyl-1-(5-methyl-[1,2,4]oxadiazol-3-yl)-ethyl]-amide], the EC50 at human CB1 receptors (Human CB1 EC50 (uM)) turned out to be 0.19 µM; at human CB2 receptors (Human CB2 EC50 (uM)), 0.0053 µM.

For `Cc1nnc(C(C)(CC2COC2)NC(=O)c2cc(OCC(F)(F)F)c(C3CC3)cn2)o1` (stereo not shown) [Example 191, 5-cyclopropyl-N-[2-(5-methyl-1,3,4-oxadiazol-2-yl)-1-(oxetan-3-yl)propan-2-yl]-4-(2,2,2-trifluoroethoxy)pyridine-2-carboxamide], the figures for the EC50 at human CB1 receptors (read-out: Human CB1 EC50) and at human CB2 receptors (read-out: Human CB2 EC50) were more than 10 µM and 0.707 µM, respectively.

On to `O=C(N[C@@H](c1cccnc1)C(F)(F)F)c1cc(OCC2CC2)c(Cl)cn1` [Example 22, 5-Chloro-4-cyclopropylmethoxy-pyridine-2-carboxylic acid ((S)-2,2,2-trifluoro-1-pyridin-3-yl-ethyl)-amide], for which the EC50 at human CB1 receptors (read-out: Human CB1 EC50) is more than 10 µM; at human CB2 receptors (read-out: Human CB2 EC50) it was 0.0057 µM.

For `CNC(=O)C(NC(=O)c1cc(OCC(F)(F)F)c(C2CC2)cn1)C(C)(C)O` (stereo not shown) [Example 236, 5-cyclopropyl-N-[3-hydroxy-3-methyl-1-(methylamino)-1-oxobutan-2-yl]-4-(2,2,2-trifluoroethoxy)pyridine-2-carboxamide], the EC50 at human CB1 receptors (read-out: Human CB1 EC50) was more than 10 µM; at human CB2 receptors (read-out: Human CB2 EC50) it was 0.0512 µM.

For `CC(C)(C)C(NC(=O)c1cc(OCC(F)(F)F)c(C2CC2)cn1)c1noc(N)n1` (single isomer, unassigned) [Example 226, N-[1-(5-amino-1,2,4-oxadiazol-3-yl)-2,2-dimethylpropyl]-5-cyclopropyl-4-(2,2,2-trifluoroethoxy)pyridine-2-carboxamide], the EC50 on human CB1 receptors (Human CB1 EC50 (uM)) was more than 10 µM; at human CB2 receptors (Human CB2 EC50 (uM)), 0.0065 µM.

Regarding `Cc1nc([C@](C)(NC(=O)c2cc(OCC(F)(F)F)c(N3CC(F)(F)C3)cn2)C2CC2)no1` (single isomer, unassigned; enantiomer a) [Example 87, 5-(3,3-Difluoro-azetidin-1-yl)-4-(2,2,2-trifluoro-ethoxy)-pyridine-2-carboxylic acid [1-cyclopropyl-1-(5-methyl-[1,2,4]oxadiazol-3-yl)-ethyl]-amide (enantiomer A)], the EC50 is more than 10 µM at human CB1 receptors (Human CB1 EC50 (uM)) and 0.0568 µM on human CB2 receptors (Human CB2 EC50 (uM)).

As for `CC(C)(O)CNC(=O)c1cc(OCC(F)(F)F)c(C2CC2)cn1` [Example 60, 5-Cyclopropyl-4-(2,2,2-trifluoro-ethoxy)-pyridine-2-carboxylic acid (2-hydroxy-2-methyl-propyl)-amide], the figures for the EC50 at human CB1 receptors (read-out: Human CB1 EC50) and at human CB2 receptors (read-out: Human CB2 EC50) were more than 10 µM and 0.481 µM, respectively.

Turning to `O=C(NC1(c2nccs2)COC1)c1cc(OCC2CC2)c(C2CC2)cn1` [Example 42, 5-Cyclopropyl-4-cyclopropylmethoxy-pyridine-2-carboxylic acid (3-thiazol-2-yl-oxetan-3-yl)-amide], the results for the EC50 at human CB1 receptors (read-out: Human CB1 EC50) and on human CB2 receptors (read-out: Human CB2 EC50) were more than 10 µM and 0.0116 µM, respectively.

As to `CNC(=O)[C@@H](NC(=O)c1cc(OCC(F)(F)F)c(C2CC2)cn1)C(C)(C)C` [Example 48, 5-Cyclopropyl-4-(2,2,2-trifluoro-ethoxy)-pyridine-2-carboxylic acid ((S)-2,2-dimethyl-1-methylcarbamoyl-propyl)-amide], the values for the EC50 at human CB1 receptors (read-out: Human CB1 EC50) and at human CB2 receptors (read-out: Human CB2 EC50) were 0.661 µM and 0.00158 µM, respectively.

In the case of `Cc1nc(C(C)(CC2CC2)NC(=O)c2cc(OCC(F)(F)F)c(Cl)cn2)no1` (stereo not shown) [Example 89, 5-Chloro-4-(2,2,2-trifluoro-ethoxy)-pyridine-2-carboxylic acid [2-cyclopropyl-1-methyl-1-(5-methyl-[1,2,4]oxadiazol-3-yl)-ethyl]-amide], the EC50 at human CB1 receptors (read-out: Human CB1 EC50) was more than 10 µM; at human CB2 receptors (read-out: Human CB2 EC50), 0.0483 µM.

As to `NC(=O)CC1(NC(=O)c2cc(OCC3CC3)c(N3CC(F)(F)C3)cn2)COC1` [Example 222, N-[3-(2-amino-2-oxoethyl)oxetan-3-yl]-4-(cyclopropylmethoxy)-5-(3,3-difluoroazetidin-1-yl)pyridine-2-carboxamide], the values for the EC50 on human CB1 receptors (read-out: Human CB1 EC50) and on human CB2 receptors (read-out: Human CB2 EC50) were more than 10 µM and 0.0467 µM, respectively.

As for `Cc1nc([C@](C)(CC2CC2)NC(=O)c2cc(OCC(F)(F)F)c(N3CC(F)(F)C3)cn2)no1` (single isomer, unassigned) [Example 92, 5-(3,3-Difluoro-azetidin-1-yl)-4-(2,2,2-trifluoro-ethoxy)-pyridine-2-carboxylic acid [2-cyclopropyl-1-methyl-1-(5-methyl-[1,2,4]oxadiazol-3-yl)-ethyl]-amide], the EC50 is more than 10 µM at human CB1 receptors (Human CB1 EC50 (uM)) and 0.0214 µM at human CB2 receptors (Human CB2 EC50 (uM)).

Regarding `Cc1nnc(C(C)(CC2COC2)NC(=O)c2cc(O[C@@H](C)C(F)(F)F)c(C3CC3)cn2)o1` (stereo partly drawn) [Example 190, 5-cyclopropyl-N-[2-(5-methyl-1,3,4-oxadiazol-2-yl)-1-(oxetan-3-yl)propan-2-yl]-4-[(2S)-1,1,1-trifluoropropan-2-yl]oxypyridine-2-carboxamide], the values for the EC50 at human CB1 receptors (read-out: Human CB1 EC50) and on human CB2 receptors (read-out: Human CB2 EC50) were more than 10 µM and 0.559 µM, respectively.

With `CC(CC(N)=O)(NC(=O)c1cc(OCC(F)(F)F)c(N2CC(F)(F)C2)cn1)C1CC1` (single isomer, unassigned) [Example 275, N-[4-amino-2-cyclopropyl-4-oxobutan-2-yl]-5-(3,3-difluoroazetidin-1-yl)-4-(2,2,2-trifluoroethoxy)pyridine-2-carboxamide], the values for the EC50 at human CB1 receptors (Human CB1 EC50 (uM)) and on human CB2 receptors (Human CB2 EC50 (uM)) were more than 10 µM and 0.0227 µM, respectively.

For `Cc1nc(C(C)(CC2CC2)NC(=O)c2cc(OCC(F)(F)F)c(C3(O)COC3)cn2)no1` (stereo not shown) [Example 123, N-[1-cyclopropyl-2-(5-methyl-1,2,4-oxadiazol-3-yl)propan-2-yl]-5-(3-hydroxyoxetan-3-yl)-4-(2,2,2-trifluoroethoxy)pyridine-2-carboxamide], the EC50 on human CB1 receptors (read-out: Human CB1 EC50) is more than 10 µM; at human CB2 receptors (read-out: Human CB2 EC50) it was 0.998 µM.

Consider `Cc1nc(C(NC(=O)c2cc(OCC(F)(F)F)c(C3CC3)cn2)C(C)(C)C)no1` (single isomer, unassigned) [Example 211, 5-cyclopropyl-N-[2,2-dimethyl-1-(5-methyl-1,2,4-oxadiazol-3-yl)propyl]-4-(2,2,2-trifluoroethoxy)pyridine-2-carboxamide], for which the EC50 on human CB1 receptors (Human CB1 EC50 (uM)) is more than 10 µM; at human CB2 receptors (Human CB2 EC50 (uM)) it was 0.0048 µM.

As for `C[C@H](Oc1cc(C(=O)NC(C(N)=O)C(C)(C)C)ncc1C1CC1)C(F)(F)F` (stereo partly drawn) [Example 240, N-(1-amino-3,3-dimethyl-1-oxobutan-2-yl)-5-cyclopropyl-4-[(2S)-1,1,1-trifluoropropan-2-yl]oxypyridine-2-carboxamide], the EC50 on human CB1 receptors (read-out: Human CB1 EC50) is more than 10 µM; on human CB2 receptors (read-out: Human CB2 EC50) it was 0.0552 µM.

As to `CC(CF)Oc1cc(C(=O)NC(C)(CC(N)=O)C2CC2)ncc1C1CC1` (stereo not shown) [Example 293, N-(4-amino-2-cyclopropyl-4-oxobutan-2-yl)-5-cyclopropyl-4-(1-fluoropropan-2-yloxy)picolinamide], the figures for the 50% effective concentration (EC50) on human CB1 receptors (read-out: Human CB1 EC50) and on human CB2 receptors (read-out: Human CB2 EC50) were more than 10 µM and 0.0013 µM, respectively.

For the molecule `CNC(=O)CC(C)(NC(=O)c1cc(OCC(F)(F)F)c(C2CC2)cn1)C1CC1` (stereo not shown) [Example 229, 5-cyclopropyl-N-[2-cyclopropyl-4-(methylamino)-4-oxobutan-2-yl]-4-(2,2,2-trifluoroethoxy)pyridine-2-carboxamide], the results for the EC50 at human CB1 receptors (read-out: Human CB1 EC50) and at human CB2 receptors (read-out: Human CB2 EC50) were more than 10 µM and 0.0114 µM, respectively.

Consider `Cc1nc(C(C)(NC(=O)c2cc(OCC3CC3)c(C3CC3)cn2)C2CC2)no1` (stereo not shown) [Example 44, 5-Cyclopropyl-4-cyclopropylmethoxy-pyridine-2-carboxylic acid [1-cyclopropyl-1-(5-methyl-[1,2,4]oxadiazol-3-yl)-ethyl]-amide], for which the EC50 on human CB1 receptors (read-out: Human CB1 EC50) is more than 10 µM; at human CB2 receptors (read-out: Human CB2 EC50), 0.0007 µM.
